Experimental data as given in patent publication US20230234942A1, “COMPOUNDS FOR TREATING HUNTINGTON'S DISEASE” (PTC Therapeutics, Inc., priority 2020, published 2023).

Tested on: Endogenous Huntingtin Protein
Test: Endogenous Huntingtin Protein Assay (ELISA-based MSD electrochemiluminescence)
Format: cell-based
Method in brief: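 Endogenous huntingtin measured on MSD plates coated with MW1 (polyglutamine-expanded) or MAB2166 capture antibody; lysates bound overnight at 4 °C. Signal developed with #56565 rabbit monoclonal and goat anti-rabbit SULFO-TAG (0.25 µg/mL, 1 h RT each), electrochemiluminescence read on SI 6000.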

[1] = Table 2, MSD plates coated with MW1 (expanded polyglutamine) or MAB2166 capture antibody, "inactive" = result above the detection limit of the assay

Structure (SMILES) | IC50 [1] [nM] | further results
Cn1nnc2nc(-c3ccc(-c4cnc(N5CCN[C@@H](C6CC6)C5)nn4)c(O)c3)ccc21 [Cpd 171, 2-{3-[(3S)-3-cyclopropylpiperazin-1-yl]-1,2,4-triazin-6-yl}-5-(1-methyl-1H-[1,2,3]triazolo[4,5-b]pyridin-5-yl)phenol] | 14.1 | –
C[C@H]1CN(c2ncc(-c3ccc(-c4cn[nH]c4)cc3O)nn2)[C@@H](C)CN1 [Cpd 176, 2-{3-[(2S,5S)-2,5-dimethylpiperazin-1-yl]-1,2,4-triazin-6-yl}-5-(1H-pyrazol-4-yl)phenol] | 619 | –
CC(C)[C@H]1CN(c2ncc(-c3ccc(-c4cc(F)c5nn(C)cc5c4)cc3O)nn2)CCN1 [Cpd 81, 5-(7-fluoro-2-methyl-2H-indazol-5-yl)-2-{3-[(3S)-3-(propan-2-yl)piperazin-1-yl]-1,2,4-triazin-6-yl}phenol] | 5.4 | –
CC(C)[C@H]1CN(c2ncc(-c3ccc(-c4cnn5c4OCCC5)cc3O)nn2)CCN1 [Cpd 282, 5-(6,7-dihydro-5H-pyrazolo[5,1-b][1,3]oxazin-3-yl)-2-{3-[(3S)-3-(propan-2-yl)piperazin-1-yl]-1,2,4-triazin-6-yl}phenol] | 131 | –
CCc1cc(-c2ccc(-c3cnc(N4CCN[C@@H](C(C)C)C4)nn3)c(O)c2)ncn1 [Cpd 150, 5-(6-ethylpyrimidin-4-yl)-2-{3-[(3S)-3-(propan-2-yl)piperazin-1-yl]-1,2,4-triazin-6-yl}phenol] | 139 | –
Oc1cc(-c2c[nH]nc2F)ccc1-c1cnc(N2CCN[C@@H](C3CC3)C2)nn1 [Cpd 1, 2-{3-[(3S)-3-cyclopropylpiperazin-1-yl]-1,2,4-triazin-6-yl}-5-(3-fluoro-1H-pyrazol-4-yl)phenol] | 2.1 | –
CC(C)(O)C1CN(c2ncc(-c3ccc(-n4nccn4)cc3O)nn2)CCN1 (centres unmarked) [Cpd 14, 2-{3-[3-(2-hydroxypropan-2-yl)piperazin-1-yl]-1,2,4-triazin-6-yl}-5-(2H-1,2,3-triazol-2-yl)phenol] | 12.2 | –
Cc1cnn(-c2ccc(-c3cnc(N4CCN[C@H](C5CC5)C4)nn3)c(O)c2)n1 [Cpd 183, 2-{3-[(3R)-3-cyclopropylpiperazin-1-yl]-1,2,4-triazin-6-yl}-5-(4-methyl-2H-1,2,3-triazol-2-yl)phenol] | 18.8 | –
CC1(C)CN(c2ncc(-c3ccc(-c4cn[nH]c4)cc3O)nn2)CCN1 [Cpd 56, 2-[3-(3,3-dimethylpiperazin-1-yl)-1,2,4-triazin-6-yl]-5-(1H-pyrazol-4-yl)phenol] | 654 | –
Oc1cc(-c2cc(N3CCC3)ncn2)ccc1-c1cnc(N2CCNC(C3CC3)C2)nn1 (racemic) [Cpd 210, 5-[6-(azetidin-1-yl)pyrimidin-4-yl]-2-{3-[(3RS)-3-cyclopropylpiperazin-1-yl]-1,2,4-triazin-6-yl}phenol] | 975 | –
C[C@@H]1CN(c2ncc(-c3ccc(-c4ccc5nn(C)nc5n4)cc3O)nn2)C[C@H](C)N1 [Cpd 201, 2-{3-[rac-(3R,5S)-3,5-dimethylpiperazin-1-yl]-1,2,4-triazin-6-yl}-5-(2-methyl-2H-[1,2,3]triazolo[4,5-b]pyridin-5-yl)phenol] | 11.1 | –
C=C[C@H]1CN(c2ncc(-c3ccc(-c4cn[nH]c4)cc3O)nn2)C[C@@H](C)N1 [Cpd 249, 2-{3-[(3S,5R)-3-ethenyl-5-methylpiperazin-1-yl]-1,2,4-triazin-6-yl]-5-(1H-pyrazol-4-yl)phenol] | 319 | –
CC(C)C1CN(c2ncc(-c3ccc(-c4cnn(C)c4)cc3O)nn2)CCN1 (centres unmarked) [Cpd 35, 5-(1-methyl-1H-pyrazol-4-yl)-2-{3-[3-(propan-2-yl)piperazin-1-yl]-1,2,4-triazin-6-yl}phenol] | 46.1 | –
CCCC1CN(c2ncc(-c3ccc(-c4cn[nH]c4)cc3O)nn2)CCN1 (centres unmarked) [Cpd 31, 2-[3-(3-propylpiperazin-1-yl)-1,2,4-triazin-6-yl]-5-(1H-pyrazol-4-yl)phenol] | 34.3 | –
Cc1cn2nc(-c3ccc(-c4cnc(N5C[C@@H](C)N(C)[C@@H](C)C5)nn4)c(O)c3)cc(C)c2n1 [Cpd 111, 5-(2,8-dimethylimidazo[1,2-b]pyridazin-6-yl)-2-{3-[(3R,5S)-3,4,5-trimethylpiperazin-1-yl]-1,2,4-triazin-6-yl}phenol] | 27.5 | –
CC(C)(C)[C@H]1CN(c2ncc(-c3ccc(-c4c[nH]nc4F)cc3O)nn2)CCN1 [Cpd 125, 2-{3-[(3S)-3-tert-butylpiperazin-1-yl]-1,2,4-triazin-6-yl}-5-(3-fluoro-1H-pyrazol-4-yl)phenol] | 7.3 | –
Oc1cc(-c2cn[nH]c2)ccc1-c1cnc(N2CCN[C@H](C3CC3)C2)nn1 [Cpd 136, 2-{3-[(3R)-3-cyclopropylpiperazin-1-yl]-1,2,4-triazin-6-yl}-5-(1H-pyrazol-4-yl)phenol] | 50.5 | –
C[C@@H]1CN(c2ncc(-c3ccc(-n4nccn4)cc3O)nn2)C[C@H](C2CCC2)N1 [Cpd 237, 2-{3-[(3S,5R)-3-cyclobutyl-5-methylpiperazin-1-yl]-1,2,4-triazin-6-yl}-5-(2H-1,2,3-triazol-2-yl)phenol] | 104 | –

Structure (SMILES) | IC50 [1] [nM] | further results
Cc1cnc2nc(-c3ccc(-c4cnc(N5C[C@@H](C)N[C@@H](C)C5)nn4)c(O)c3)sc2n1 [Cpd 119, 2-{3-[(3R,5S)-3,5-dimethylpiperazin-1-yl]-1,2,4-triazin-6-yl}-5-(6-methyl[1,3]thiazolo[4,5-b]pyrazin-2-yl)phenol] | – | IC50 (nM) [1]: inactive
COc1cc(-c2cnc(-c3cnc(N4CCN(C)CC4)nn3)c(O)c2)cc2cn(C)nc12 [Cpd 121, 5-(7-methoxy-2-methyl-2H-indazol-5-yl)-2-[3-(4-methylpiperazin-1-yl)-1,2,4-triazin-6-yl]pyridin-3-ol] | 16.1 | –
Cc1nc2c(C)nc(-c3ccc(-c4cnc(N5C[C@@H](C)N[C@@H](C)C5)nn4)c(O)c3)cn2n1 [Cpd 101, 2-{3-[(3R,5S)-3,5-dimethylpiperazin-1-yl]-1,2,4-triazin-6-yl}-5-(2,8-dimethyl[1,2,4]triazolo[1,5-a]pyrazin-6-yl)phenol] | 13 | –
CC(C)[C@H]1CN(c2ncc(-c3ccc(-c4ccc5nsnc5c4)cc3O)nn2)CCN1 [Cpd 263, 5-(2,1,3-benzothiadiazol-5-yl)-2-{3-[(3S)-3-(propan-2-yl)piperazin-1-yl]-1,2,4-triazin-6-yl]phenol] | 214 | –
Cc1cn2cc(-c3ccc(-c4cnc(N5CCN[C@@H](C(C)C)C5)nn4)c(O)c3)cc(C)c2n1 [Cpd 131, 5-(2,8-dimethylimidazo[1,2-a]pyridin-6-yl)-2-{3-[(3S)-3-(propan-2-yl)piperazin-1-yl]-1,2,4-triazin-6-yl}phenol] | 7.6 | –
Oc1cc(-c2cn[nH]c2)ccc1-c1cnc(N2CCNC3(CCC3)C2)nn1 [Cpd 50, 2-[3-(5,8-diazaspiro[3.5]nonan-8-yl)-1,2,4-triazin-6-yl]-5-(1H-pyrazol-4-yl)phenol] | 312 | –
Cc1cn2cc(-c3ccc(-c4cnc(N5C[C@@H](C)N[C@@H](C)C5)nn4)c(O)c3)cc(F)c2n1 [Cpd 66, 2-{3-[(3R,5S)-3,5-dimethylpiperazin-1-yl]-1,2,4-triazin-6-yl]-5-(8-fluoro-2-methylimidazo[1,2-a]pyridin-6-yl)phenol] | 3.7 | –
COc1cc(-c2ccc(-c3cnc(N4C[C@@H](C)N[C@@H](C5CC5)C4)nn3)c(O)c2)ccn1 [Cpd 256, 2-{3-[(3S,5R)-3-cyclopropyl-5-methylpiperazin-1-yl]-1,2,4-triazin-6-yl}-5-(2-methoxypyridin-4-yl)phenol] | 12.4 | –
CC(C)[C@H]1CN(c2ncc(-c3ccc(-c4nc5cccnc5s4)cc3O)nn2)CCN1 [Cpd 191, 2-{3-[(3S)-3-(propan-2-yl)piperazin-1-yl]-1,2,4-triazin-6-yl}-5-([1,3]thiazolo[5,4-b]pyridin-2-yl)phenol] | 621 | –
Oc1cc(-c2cn[nH]c2)ccc1-c1cnc(N2CCN3CCC[C@H]3C2)nn1 [WO/2019/191229 A1 Cpd 116, reference compound] | – | IC50 (Table 3, selected compounds from WO/2019/191229 A1, same MSD assay): 91.4 nM
C[C@@H]1CN(c2ncc(-c3ccc(-c4cn[nH]c4)cc3O)nn2)C[C@H](C2CC2)N1 [Cpd 225, 2-{3-[(3S,5R)-3-cyclopropyl-5-methylpiperazin-1-yl]-1,2,4-triazin-6-yl}-5-(1H-pyrazol-4-yl)phenol] | 13.4 | –
Cc1cnn(-c2ccc(-c3cnc(N4CCN[C@@H](C(C)C)C4)nn3)c(O)c2)n1 [Cpd 184, 5-(4-methyl-2H-1,2,3-triazol-2-yl)-2-{3-[(3S)-3-(propan-2-yl)piperazin-1-yl]-1,2,4-triazin-6-yl}phenol] | 49 | –
CNc1ccc(-c2ccc(-c3cnc(N4CCN[C@@H](C5CC5)C4)nn3)c(O)c2)cc1 [Cpd 179, 4-{3-[(3S)-3-cyclopropylpiperazin-1-yl]-1,2,4-triazin-6-yl}-4‘-(methylamino)[1,1‘-biphenyl]-3-ol] | 113 | –
COc1cc(-c2ccc(-c3cnc(N4C[C@@H](C)N[C@@H](C5CC5)C4)nn3)c(O)c2)ncn1 [Cpd 235, 2-{3-[(3S,5R)-3-cyclopropyl-5-methylpiperazin-1-yl]-1,2,4-triazin-6-yl}-5-(6-methoxypyrimidin-4-yl)phenol] | 8.1 | –
CC[C@@H]1CN(c2ncc(-c3ccc(-c4cn[nH]c4F)cc3O)nn2)C[C@H](C)N1 [Cpd 218, 2-{3-[(3R,5S)-3-ethyl-5-methylpiperazin-1-yl]-1,2,4-triazin-6-yl}-5-(5-fluoro-1H-pyrazol-4-yl)phenol] | 73.8 | –
COc1cc(-c2ccc(-c3cnc(N4C[C@@H](C)N[C@@H](C(C)(C)C)C4)nn3)c(O)c2)ncn1 [Cpd 255, 2-{3-[(3S,5R)-3-tert-butyl-5-methylpiperazin-1-yl]-1,2,4-triazin-6-yl}-5-(6-methoxypyrimidin-4-yl)phenol] | 341 | –
Cn1cc2cc(-c3ccc(-c4cnc(N5CCN6CCC[C@@H]6C5)nn4)c(O)c3)cc(F)c2n1 [Cpd 105, 5-(7-fluoro-2-methyl-2H-indazol-5-yl)-2-{3-[(8aR)-hexahydropyrrolo[1,2-a]pyrazin-2(1H)-yl]-1,2,4-triazin-6-yl}phenol] | 15.3 | –
